# Test system: pediatric AML patients
# Assay: AML02 multicenter clinical trial, LDAC vs HDAC induction arms: MRD1, EFS and OS overall and by ACS10 score
# Type: in vivo, human
# Set-up: 3-year EFS / 4-year OS / 5-year OS / 4-year EFS / 5-year EFS / 3-year OS: unit not given here
# Conditions: for Event-free Survival 5 years / Overall Survival 5 years: AML02 cohort
# Procedure: One hundred and sixty-six pediatric AML patients treated under the multicenter AML02 clinical trial protocol were included in the study. Details of study design and clinical outcome have been described elsewhere. Briefly, patients with de novo AML were randomized to receive either high (3 g/m^2, given every 12 h on days 1, 3, and 5; this condition is designated “HDAC”) or low dose (100 mg/m^2 given every 12 h on days 1-10; this condition is designated “LDAC”) cytarabine along with daunorubicin (50 mg/m^2 on days 2, 4 and 6) and etoposide (100 mg/m^2 on days 2-6) as a first course of chemotherapy with subsequent treatment tailored to response and risk classification. For initial risk assignment, patients with cytogenetic translocations comprisingt [8;21] (e.g., translocation between chromosome 8 and 21), inv (16), ort [9;11] were classified as low-risk. Patients with features such as deletion of chromosome 7 (−7), presence of FLT3-ITD mutation (FLT-ITD), cytogenetic translocation comprisingt [6;9], megakaryoblastic leukemia (AMKL), treatment-related AML, or AML arising from MDS were classified as high-risk AML. Patients lacking any of the low or high-risk group features were provisionally classified as standard risk AML. Patient risk classifications were updated on the basis of minimal residual disease evaluations. Clinical endpoints used in this evaluation were defined as follows: i) Minimal residual disease after induction 1 (“MRD1”) (patients were defined as MRD positive if they had ≥1 leukemic cell per 1000 mononuclear bone marrow cells (≥0.1%); ii) Complete remission defined as trilineage hematopoietic recovery with less than 5% blasts in the marrow; iii) Event-free survival (“EFS”) defined as the time from study enrollment to induction failure, relapse, secondary malignancy, death, or study withdrawal for any reason, with event-free patients censored on the date of last follow-up; and iv) Overall survival (“OS”) defined as the time from study enrollment to death, with living patients censored on the date of last follow-up. St. Jude Institutional Review Board approved the study, and informed consent was obtained from parents/guardians and consents/assents from the individuals.
# The association of MRD1, EFS, and OS was evaluated with ACS10 scores in the AML02 discovery cohort and the AAML0531 validation cohort. The Kaplan-Meier method was used to estimate the EFS and OS probabilities for well-defined groups of patients. Cox regression models were used to associate ACS10 with EFS and OS and used logistic regression models to associate ACS10 with MRD1. The Wilcoxon rank-sum test and Kruskal-Wallis test were used to compare medians of numeric variables across groups. Chi-square tests and Fisher's exact test were used to evaluate the association among pairs of categorical variables. All p-values are two-sided. All statistical analyses were performed using R software (www.r-project.org).
# The multicenter AML02 clinical trial randomly assigned subjects to receive low dose ara-C (LDAC: 100 mg/m^2; n=91 patients) or high dose ara-C(HDAC: 3 g/m^2; n=75 patients) in combination with daunorubicin and etoposide as the first course of chemotherapy as described above in patient cohort section. Thus, the association of SNPs with outcome within each arm separately was also explored (Table 5).
# Given patients in AML02 cohort were randomized to receive low or augmented high dose of ara-C, this unique opportunity was leveraged to evaluate performance of ACS10 score within the different ara-C dose treatment arms (of note LDAC and HDAC arms had similar distribution of patients across, disease characteristics, risk group, cytogenetics, race, gender etc. Table 3). […]
# [1] = ACS10 score 0, risk-adjusted Cox model
# [2] = ACS10 score 1, risk-adjusted Cox model
# [3] = ACS10 score 2, risk-adjusted Cox model
# [4] = ACS10 score 3, risk-adjusted Cox model
# [5] = ACS10 score 4, risk-adjusted Cox model
# [6] = ACS10 score 5, risk-adjusted Cox model
# [7] = ACS10 score −1, risk-adjusted Cox model
# [8] = ACS10 score −2, risk-adjusted Cox model
# [9] = ACS10 score −3, risk-adjusted Cox model
# [10] = ACS10 score −5, risk-adjusted Cox model
# [11] = low ACS10 score (≤0) patients, AML02
# [12] = number of patients per arm, after induction 1, AML02 cohort
# [13] = patients with ACS10 score of +5, risk-adjusted Cox model
# [14] = patients with ACS10 score of −5, risk-adjusted Cox model
smiles,measurement,setting,value
"Nc1ccn([C@@H]2O[C@H](CO)[C@@H](O)[C@@H]2O)c(=O)n1 [HDAC, cytarabine]",3-year EFS,[1],0.6070
same,3-year OS,[1],0.6946
same,4-year EFS,[1],0.5942
same,4-year OS,[1],0.6875
same,5-year EFS,[1],0.5872
same,5-year OS,[1],0.6875
same,3-year EFS,[2],0.6247
same,3-year OS,[2],0.7260
same,4-year EFS,[2],0.6122
same,4-year OS,[2],0.7194
same,5-year EFS,[2],0.6053
same,5-year OS,[2],0.7194
same,3-year EFS,[3],0.6418
same,3-year OS,[3],0.7550
same,4-year EFS,[3],0.6297
same,4-year OS,[3],0.7489
same,5-year EFS,[3],0.6231
same,5-year OS,[3],0.7489
same,3-year EFS,[4],0.6585
same,3-year OS,[4],0.7816
same,4-year EFS,[4],0.6468
same,4-year OS,[4],0.7760
same,5-year EFS,[4],0.6403
same,5-year OS,[4],0.7760
same,3-year EFS,[5],0.6747
same,3-year OS,[5],0.8058
same,4-year EFS,[5],0.6633
same,4-year OS,[5],0.8007
same,5-year EFS,[5],0.6570
same,5-year OS,[5],0.8007
same,3-year EFS,[6],0.6903
same,3-year OS,[6],0.8278
same,4-year EFS,[6],0.6793
same,4-year OS,[6],0.8232
same,5-year EFS,[6],0.6732
same,5-year OS,[6],0.8232
same,3-year EFS,[7],0.5889
same,3-year OS,[7],0.6609
same,4-year EFS,[7],0.5758
same,4-year OS,[7],0.6533
same,5-year EFS,[7],0.5686
same,5-year OS,[7],0.6533
same,3-year EFS,[8],0.5703
same,3-year OS,[8],0.6251
same,4-year EFS,[8],0.5569
same,4-year OS,[8],0.6170
same,5-year EFS,[8],0.5496
same,5-year OS,[8],0.6170
same,3-year EFS,[9],0.5513
same,3-year OS,[9],0.5873
same,4-year EFS,[9],0.5377
same,4-year OS,[9],0.5788
same,5-year EFS,[9],0.5302
same,5-year OS,[9],0.5788
same,3-year EFS,[10],0.5123
same,3-year OS,[10],0.5073
same,4-year EFS,[10],0.4983
same,4-year OS,[10],0.4983
same,5-year EFS,[10],0.4906
same,5-year OS,[10],0.4983
same,Event-free Survival 5 years,High ACS10 score group,0.631 ± 0.074
same,Overall Survival 5 years,High ACS10 score group,0.743 ± 0.067
same,Event-free Survival 5 years,Low ACS10 score group,0.548 ± 0.089
same,Overall Survival 5 years,Low ACS10 score group,0.634 ± 0.088
same,5 year EFS,[11],55%
same,five-year OS,[11],63%
same,MRDIND1 Negative (<0.1%),[12],43^+
same,MRDIND1 Positive (>=0.1%),[12],28^+
same,"3-year EFS, model estimate",[13],69.0%
same,"3-year OS, model estimate",[13],82.8%
same,"3-year EFS, model estimate",[14],51.2%
same,"3-year OS, model estimate",[14],50.7%
same,Event-free Survival 5 years,"probability, whole arm",0.597 ± 0.0569
same,Overall Survival 5 years,"probability, whole arm",0.699 ± 0.0537
same,"EFS HR, low-ACS10 vs high-ACS10 score","within arm, AML02",1.28
same,"OS HR, low-ACS10 vs high-ACS10 score","within arm, AML02",1.56
same,EFS HR for each one-point increase in ACS10,"within arm, risk-adjusted Cox model, AML02",0.92

# Reference: patent US20240344145A1, “PHARMACOGENOMICS SCORE TO MAKE DECISIONS ON THERAPY AUGMENTATION IN AML” (University of Florida Research Foundation, Incorporated, priority 2021, published 2024)
